Laboratory results reported in US20230382909A1, “BICYCLIC COMPOUNDS” (Aligos Therapeutics, Inc., priority 2022, published 2023).

Columns and labels:
HBV = assay: HBV-DNA antiviral assay using HepG2.117 cells; assay type: cell-based, HBV genotype D; details: Hepatitis B virus, HepG2.117, 72 h
Description: (§1) The following assay procedure describes the HBV antiviral assay, using HepG2.117 cells, which carry a stably integrated genotype D HBV genome under the control of a Tet-off promoter, and intracellular HBV DNA quantification as endpoint. Cell viability is assessed in parallel by measuring the intracellular ATP content using CellTiter-Glo 2.0 (Promega).
On day 0, HepG2.117 cells (which are maintained in routine cell culture with doxycycline present in the medium at a final concentration of 1 μg/mL) are seeded in 96-well plates (white with clear bottom) at a density of 2.0×10^4 cells/well (0.1 mL/well) in medium without doxycycline to induce pgRNA transcription and subsequent formation of HBV particles. The cells are incubated at 37° C. and 5% CO2.
(§2) On day 1, medium is removed from each well, the test articles are diluted in culture medium without doxcycyline and 100 μL was added to cell culture wells (9 concentrations, 4-fold dilution). For each plate, 6 untreated (merely DMSO) wells are included. The final concentration of DMSO in the culture medium is 2%. Each plate is prepared in duplicate (one for HBV DNA extraction, one for CellTiter-Glo 2.0 measurement). The cells are incubated at 37° C. and 5% CO2 for 3 days.
(§3) On day 4, cell viability is assessed using CellTiter-Glo 2.0 and cell lysates are prepared for HBV DNA extraction and subsequent quantification by qPCR.
HBV DNA Quantification by qPCR
Medium is removed from each well and 100 μL of 0.33% NP-40 in H2O was added to each well. Plates are sealed, incubated at 4° C. for 5 mins, vortexed extensively and centrifuged briefly. Next, 35 μL of lysate is added to 65 μL QuickExtract DNA Extraction Solution (Epicentre) in a PCR plate for each well. PCR plate is incubated at 65° C. for 6 mins, 98° C. for 2 mins and finally cooled to 4° C. HBV DNA is then quantified by qPCR with HBV-specific primers and probes as specified in Table 3 using the Bio-Rad SSOAdvanced Universal Probes Supermix on a CFX96 machine (Bio-Rad). The PCR cycle program consisted of 95° C. for 3 mins, followed by 40 cycles at 95° C. for 10 sec and 60° C. for 30 sec.
A DNA standard is prepared by dilution of an IDT gBlock corresponding to the amplicon with concentrations ranging from 10^2 to 10^8 copies/input (i.e., per 4 μL) and used to generate a standard curve by plotting Cq values vs. HBV DNA standard concentration. The quantity of HBV DNA in each sample is determined by interpolating from the standard curve.
(§4) Cell viability is calculated as follows: % Cell viability=(luminescence value of test sample)/(average luminescence value of 2% DMSO control)×100%. HBV DNA inhibition was calculated as follows: 100−(HBV DNA copy number of test sample)/(average HBV DNA copy number of 2% DMSO control)×100%. No normalization to entecavir is required due to the excellent dynamic window of this assay. The CC50, EC50 and EC9o values were determined by dose-response curves fitted using non-linear regression.

[1] = Cell viability by CellTiter-Glo 2.0 (intracellular ATP content) in HepG2.117 cells; assay type: cell-based; details: human, CellTiter-Glo 2.0, 3 days incubation
Description: as §1, §2, §3
Using the other plates, the cell viability is quantified by CellTiter-Glo 2.0 according to the manufacturer's manual. In brief, 100 μL of reagent solution is added to the culture plates and shaken for 2′. The plates are incubated at rt for 10 min and luminescence signal is subsequently measured on a VarioSkan Lux (ThermoFisher) plate reader.
as §4

Cc1cc(C)n(-c2nc3c(c(=O)n2-c2ccc(N4CC[C@H](O)C4)nc2)C[C@@H](C)N(C(=O)c2ccc(Br)c(C(F)(F)F)c2)C3)n1 [Compound 33, (6R)-7-[4-bromo-3-(trifluoromethyl)benzoyl]-2-(3,5-dimethylpyrazol-1-yl)-3-[6-[(3S)-3-hydroxypyrrolidin-1-yl]-3-pyridyl]-6-methyl-6,8-dihydro-5H-pyrido[3,4-d]pyrimidin-4-one]
EC50 (HBV): < 50 nM
CC50 at 3 days [1]: > 500 nM

Cc1cc(C)n(-c2nc3c(c(=O)n2-c2ccc(N4CCN(C(C)C)CC4)nc2)C[C@@H](C)N(C(=O)c2ccc(Br)c(C(F)(F)F)c2)C3)n1 [Compound 34, (6R)-7-[4-bromo-3-(trifluoromethyl)benzoyl]-2-(3,5-dimethylpyrazol-1-yl)-3-[6-(4-isopropylpiperazin-1-yl)-3-pyridyl]-6-methyl-6,8-dihydro-5H-pyrido[3,4-d]pyrimidin-4-one]
EC50 (HBV): < 50 nM
CC50 at 3 days [1]: > 500 nM

Cc1cc(C)n(-c2nc3c(c(=O)n2-c2ccc(N[C@H]4C[C@@H](O)C4)nc2)C[C@@H](C)N(C(=O)c2ccc(Br)c(C(F)(F)F)c2)C3)n1 [Compound 35, (R)-7-(4-bromo-3-(trifluoromethyl)benzoyl]-2-(3,5-dimethyl-1H-pyrazol-1-yl)-3-(6-(((1s,3S)-3-hydroxycyclobutyl)amino)pyridin-3-yl)-6-methyl-5,6,7,8-tetrahydropyrido[3,4-d]pyrimidin-4(3H)-one]
EC50 (HBV): < 50 nM
CC50 at 3 days [1]: > 500 nM

Cc1cc(C)n(-c2nc3c(c(=O)n2-c2ccc(N[C@H]4C[C@H](O)C4)nc2)C[C@@H](C)N(C(=O)c2ccc(Br)c(C(F)(F)F)c2)C3)n1 [Compound 36, (R)-7-(4-bromo-3-(trifluoromethyl)benzoyl)-2-(3,5-dimethyl-1H-pyrazol-1-yl)-3-(6-(((1r,3R)-3-hydroxycyclobutyl)amino)pyridin-3-yl)-6-methyl-5,6,7,8-tetrahydropyrido[3,4-d]pyrimidin-4(3H)-one]
EC50 (HBV): < 50 nM
CC50 at 3 days [1]: > 500 nM

Cc1cc(C)n(-c2nc3c(c(=O)n2-c2ccc(O[C@H]4C[C@@H](O)C4)cc2)C[C@@H](C)N(C(=O)c2ccc(Br)c(C(F)(F)F)c2)C3)n1 [Compound 37, (R)-7-(4-bromo-3-(trifluoromethyl)benzoyl)-2-(3,5-dimethyl-1H-pyrazol-1-yl)-3-(4-((1s,3S)-3-hydroxycyclobutoxy)phenyl)-6-methyl-5,6,7,8-tetrahydropyrido[3,4-d]pyrimidin-4(3H)-one]
EC50 (HBV): < 50 nM
CC50 at 3 days [1]: > 500 nM

Cc1cc(C)n(-c2nc3c(c(=O)n2-c2ccc(O[C@H]4C[C@H](O)C4)cc2)C[C@@H](C)N(C(=O)c2ccc(Br)c(C(F)(F)F)c2)C3)n1 [Compound 38, (R)-7-(4-bromo-3-(trifluoromethyl)benzoyl)-2-(3,5-dimethyl-1H-pyrazol-1-yl)-3-(4-((1r,3R)-3-hydroxycyclobutoxy)phenyl)-6-methyl-5,6,7,8-tetrahydropyrido[3,4-d]pyrimidin-4(3H)-one]
EC50 (HBV): < 50 nM
CC50 at 3 days [1]: > 500 nM

Cc1cc(C)n(-c2nc3c(c(=O)n2-c2ccc(O[C@H]4C[C@@H](O)C4)nc2)C[C@@H](C)N(C(=O)c2ccc(Br)c(C(F)(F)F)c2)C3)n1 [Compound 39, (R)-7-(4-bromo-3-(trifluoromethyl)benzoyl)-2-(3,5-dimethyl-1H-pyrazol-1-yl)-3-(6-((1s,3S)-3-hydroxycyclobutoxy)pyridin-3-yl)-6-methyl-5,6,7,8-tetrahydropyrido[3,4-d]pyrimidin-4(3H)-one]
EC50 (HBV): < 50 nM
CC50 at 3 days [1]: > 500 nM

Cc1cc(C)n(-c2nc3c(c(=O)n2-c2ccc(O[C@H]4C[C@H](O)C4)nc2)C[C@@H](C)N(C(=O)c2ccc(Br)c(C(F)(F)F)c2)C3)n1 [Compound 40, (R)-7-(4-bromo-3-(trifluoromethyl)benzoyl)-2-(3,5-dimethyl-1H-pyrazol-1-yl)-3-(6-((1r,3R)-3-hydroxycyclobutoxy)pyridin-3-yl)-6-methyl-5,6,7,8-tetrahydropyrido[3,4-d]pyrimidin-4(3H)-one]
EC50 (HBV): < 50 nM
CC50 at 3 days [1]: > 500 nM

Cc1cc(C)n(-c2nc3c(c(=O)n2-c2ncc(N)cn2)C[C@@H](C)N(C(=O)c2ccc(Br)c(C(F)(F)F)c2)C3)n1 [Compound 41, (R)-3-(5-aminopyrimidin-2-yl)-7-(4-bromo-3-(trifluoromethyl)benzoyl)-2-(3,5-dimethyl-1H-pyrazol-1-yl)-6-methyl-5,6,7,8-tetrahydropyrido[3,4-d]pyrimidin-4(3H)-one]
EC50 (HBV): < 50 nM
CC50 at 3 days [1]: > 500 nM

CNc1cnc(-n2c(-n3nc(C)cc3C)nc3c(c2=O)C[C@@H](C)N(C(=O)c2ccc(Br)c(C(F)(F)F)c2)C3)nc1 [Compound 42, (R)-7-(4-bromo-3-(trifluoromethyl)benzoyl)-2-(3,5-dimethyl-1H-pyrazol-1-yl)-6-methyl-3-(5-(methylamino)pyrimidin-2-yl)-5,6,7,8-tetrahydropyrido[3,4-d]pyrimidin-4(3H)-one]
EC50 (HBV): < 50 nM
CC50 at 3 days [1]: > 500 nM
